Patent publication US20020068057A1, “TREATMENT OF AUTOIMMUNE AND INFLAMMATORY DISORDERS” (priority 1996, published 2002)

Legend:
[1] = tested on: collagen type II induced arthritis; assay: Collagen-induced arthritis, Example 2B: limb involvement; type: in vivo, mouse; settings: 2 mg/kg body weight i.p.
Description: (§1) Male DBA/1 mice were immunized intradermally with 100 μg of bovine type II collagen emulsified in complete Freund's adjuvant (Difco Laboratories, East Molsey, UK). The mean day of onset of arthritis was approximately one month after immunization. After the onset of clinically evident arthritis (erythema and/or swelling), mice were injected intraperitoneally with therapeutic agents. Arthritis was monitored for clinical score and paw swelling (measured with calipers) for 10 days, after which the mice were sacrificed and joints were processed for histology. Sera were collected for analysis on day 10. Therapeutic agents were administered on day 1 (onset), day 4 and day 7. The therapeutic agents included TNF receptor/IgG fusion protein (p55-sf2), anti-TNF antibody, anti-CD4 antibody, and methylprednisolone acetate.
Using the Experimental Procedure described above, groups of mice were subjected to treatment with TNF receptor/IgG protein (2 μg) (18 mice), TNF receptor/IgG protein (20 μg) (18 mice), TNF receptor/IgG protein (100 μg) (12 mice), anti-TNF monoclonal antibody (mAb) (300 μg) (17 mice), methylprednisolone acetate (6 mice), an irrelevant human IgG1 monoclonal antibody (mAb) (6 mice), or saline (control). The TNF receptor/IgG fusion protein, herein referred to as p55-sf2, (Butler et al., Cytokine (in press): (1994), was provided by Centocor, Inc., Malvern Pa.; it is dimeric and consists of the human p55 TNF receptor (extracellular domains) fused to a partial J sequence followed by the whole of the constant region of the hunan IgG1 heavy chain, itself associated with the constant region of a kappa light chain. The […] antibody was TN3-19.12, a neutralizing hamster IgG1 anti-TNFα/β monoclonal antibody (Sheehan, K. C. et al., J. Immunology 142:3884-3893 (1989)), and was provided by R. Schreiber, Washington University Medical School (St. Louis, Mo., USA), in conjunction with Celltech (Slough, UK). […]

[2] = tested on: collagen type II induced arthritis; assay: Collagen-induced arthritis, Example 2B: histology of PIP joints; type: in vivo, mouse; settings: 2 mg/kg body weight i.p.
Description: as §1
Using the Experimental Procedure described above, groups of mice were subjected to treatment with TNF receptor/IgG protein (2 μg) (18 mice), TNF receptor/IgG protein (20 μg) (18 mice), TNF receptor/IgG protein (100 μg) (12 mice), anti-TNF monoclonal antibody (mAb) (300 μg) (17 mice), methylprednisolone acetate (6 mice), an irrelevant human IgG1 monoclonal antibody (mAb) (6 mice), or saline (control). […]

CC(=O)OCC(=O)[C@@]1(O)CC[C@H]2[C@@H]3C[C@H](C)C4=CC(=O)C=C[C@]4(C)[C@H]3[C@@H](O)C[C@@]21C [Methylprednisolone acetate, methylprednisolone acetate]
Increase (%) in limbs affected [1]: 33% | Limbs Affected (mean ± SEM) Day 1 ([1]; Day 1): 1.00 ± 0.00 | Limbs Affected (mean ± SEM) Day 10 ([1]; Day 10): 1.50 ± 0.22 | PIP Joints with Erosions (%) [2]: (67%) | PIP Joints with Erosions (number/total) [2]: 4/6
